Measurements: ChEMBL document CHEMBL1201862, “PubChem BioAssay data set” (2004)
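The compound was tested at five concentrations on cells cultured in 96-well plates, with a 48-hour exposure period. The concentration for 50% growth inhibition is given as GI50.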 Active and inactive are the calls of the source. Rule as the data show it: active = GI50 up to about 1.1 µM and inactive = higher.

Tests used:
Experiment in all cases: DTP human tumour cell line panel, 48 h
HCT-116 = test system: HCT-116
SNB-19 = test system: SNB-19
UO-31 = test system: UO-31
K562 = test system: K562
MDA-MB-231 = test system: MDA-MB-231
MOLT-4 = test system: MOLT-4
KM12 = test system: KM12
OVCAR-3 = test system: OVCAR-3
MDA-N = test system: MDA-N
TK-10 = test system: TK-10
MCF7 = test system: MCF7
COLO 205 = test system: COLO 205
OVCAR-8 = test system: OVCAR-8
NCI/ADR-RES = test system: NCI/ADR-RES
NCI-H226 = test system: NCI-H226
SK-MEL-5 = test system: SK-MEL-5
T47D = test system: T47D
SNB-75 = test system: SNB-75
HCC 2998 = test system: HCC 2998
HOP-92 = test system: HOP-92

Structure (SMILES)	GI50 (HCT-116)	GI50 (SNB-19)	GI50 (UO-31)	GI50 (K562)	GI50 (MDA-MB-231)	GI50 (MOLT-4)	GI50 (KM12)	GI50 (OVCAR-3)	GI50 (MDA-N)	GI50 (TK-10)	GI50 (MCF7)	GI50 (COLO 205)	GI50 (OVCAR-8)	GI50 (NCI/ADR-RES)	GI50 (NCI-H226)	GI50 (SK-MEL-5)	GI50 (T47D)	GI50 (SNB-75)	GI50 (HCC 2998)	GI50 (HOP-92)
CCCNC(=O)NNC(=O)c1c[nH]c2nc(C)ccc2c1=O	> 100 µM (inactive)	> 100 µM (inactive)	> 100 µM (inactive)	> 100 µM (inactive)	> 100 µM (inactive)	> 100 µM (inactive)	> 100 µM (inactive)	> 100 µM (inactive)	> 100 µM (inactive)	> 100 µM (inactive)	> 100 µM (inactive)	> 100 µM (inactive)	> 100 µM (inactive)	> 100 µM (inactive)	> 100 µM (inactive)	> 100 µM (inactive)	> 100 µM (inactive)	–	–	–
CC(=NNC(=S)Nc1ccccc1C)c1cccc(C(C)=NNC(=S)Nc2ccccc2C)n1	18.4 µM (inactive)	> 100 µM (inactive)	45.9 µM (inactive)	31.4 µM (inactive)	–	14.1 µM (inactive)	24 µM (inactive)	–	> 100 µM (inactive)	23.7 µM (inactive)	65.2 µM (inactive)	10.9 µM (inactive)	17.4 µM (inactive)	18.6 µM (inactive)	9.73 µM (inactive)	1.3 µM (inactive)	> 100 µM (inactive)	2.36 µM (inactive)	> 100 µM (inactive)	11.4 µM (inactive)
O=C1c2ccccc2-n2nnnc2C2CSCN12 (centres undefined)	> 100 µM (inactive)	> 100 µM (inactive)	> 100 µM (inactive)	56.2 µM (inactive)	> 100 µM (inactive)	> 100 µM (inactive)	> 100 µM (inactive)	> 100 µM (inactive)	> 100 µM (inactive)	> 100 µM (inactive)	> 100 µM (inactive)	> 100 µM (inactive)	> 100 µM (inactive)	> 100 µM (inactive)	> 100 µM (inactive)	> 100 µM (inactive)	> 100 µM (inactive)	> 100 µM (inactive)	> 100 µM (inactive)	–
Cc1cc(C)n(-c2nc3ccccc3c(=O)n2-c2ccccc2)n1	> 100 µM (inactive)	> 100 µM (inactive)	0.621 µM (active)	> 100 µM (inactive)	> 100 µM (inactive)	> 100 µM (inactive)	–	> 100 µM (inactive)	> 100 µM (inactive)	> 100 µM (inactive)	> 100 µM (inactive)	> 100 µM (inactive)	> 100 µM (inactive)	> 100 µM (inactive)	> 100 µM (inactive)	> 100 µM (inactive)	> 100 µM (inactive)	> 100 µM (inactive)	> 100 µM (inactive)	–
COc1ccc2nc3c([N+](=O)[O-])ccc(NCCN(C)C)c3c(N)c2c1	0.145 µM (active)	1.84 µM (inactive)	1.35 µM (inactive)	0.223 µM (active)	0.234 µM (active)	0.479 µM (active)	0.469 µM (active)	0.562 µM (active)	1.73 µM (inactive)	1.6 µM (inactive)	0.513 µM (active)	0.859 µM (active)	1.66 µM (inactive)	0.847 µM (active)	1.97 µM (inactive)	1.81 µM (inactive)	1.17 µM (inactive)	1.08 µM (active)	–	0.695 µM (active)
CN(c1ccc(Cl)cc1)S(=O)(=O)c1ccc([N+](=O)[O-])cc1	> 100 µM (inactive)	> 100 µM (inactive)	> 100 µM (inactive)	> 100 µM (inactive)	> 100 µM (inactive)	> 100 µM (inactive)	> 100 µM (inactive)	> 100 µM (inactive)	> 100 µM (inactive)	> 100 µM (inactive)	> 100 µM (inactive)	> 100 µM (inactive)	> 100 µM (inactive)	> 100 µM (inactive)	> 100 µM (inactive)	26 µM (inactive)	> 100 µM (inactive)	> 100 µM (inactive)	> 100 µM (inactive)	–
COc1ccc(C2=C(OC(C)=O)c3cccn3-c3ccccc3S2)cc1	–	–	–	–	0.728 µM (active)	4.06 µM (inactive)	2.62 µM (inactive)	–	0.34 µM (active)	> 10 µM (inactive)	3.48 µM (inactive)	2.7 µM (inactive)	5.82 µM (inactive)	–	–	3.37 µM (inactive)	5.9 µM (inactive)	2.41 µM (inactive)	2.95 µM (inactive)	1.58 µM (inactive)
N#C/C(=C1/c2cc([N+](=O)[O-])ccc2-c2c1cc([N+](=O)[O-])cc2[N+](=O)[O-])N1CCCCC1	27.3 µM (inactive)	> 100 µM (inactive)	> 100 µM (inactive)	> 100 µM (inactive)	> 100 µM (inactive)	> 100 µM (inactive)	> 100 µM (inactive)	> 100 µM (inactive)	> 100 µM (inactive)	> 100 µM (inactive)	19 µM (inactive)	> 100 µM (inactive)	> 100 µM (inactive)	51.3 µM (inactive)	> 100 µM (inactive)	91.4 µM (inactive)	> 100 µM (inactive)	16.9 µM (inactive)	> 100 µM (inactive)	–
Cc1nnc2nc(-c3ccc(Cl)cc3Cl)cc(-c3ccc(Cl)cc3)n12	> 100 µM (inactive)	> 100 µM (inactive)	24.4 µM (inactive)	50.4 µM (inactive)	47.5 µM (inactive)	15.5 µM (inactive)	> 100 µM (inactive)	50.1 µM (inactive)	> 100 µM (inactive)	> 100 µM (inactive)	31 µM (inactive)	13.7 µM (inactive)	> 100 µM (inactive)	87.5 µM (inactive)	> 100 µM (inactive)	68.5 µM (inactive)	89.1 µM (inactive)	–	–	1.47 µM (inactive)
COC(=O)CNS(=O)(=O)c1ccc(-c2c3nc(c(-c4ccc(S(=O)(=O)NCC(=O)OC)cc4)c4ccc([nH]4)c(-c4ccc(S(=O)(=O)NCC(=O)OC)cc4)c4nc(c(-c5ccc(S(=O)(=O)NCC(=O)OC)cc5)c5ccc2[nH]5)C=C4)C=C3)cc1	> 100 µM (inactive)	> 100 µM (inactive)	> 100 µM (inactive)	> 100 µM (inactive)	42.2 µM (inactive)	> 100 µM (inactive)	50.7 µM (inactive)	> 100 µM (inactive)	> 100 µM (inactive)	> 100 µM (inactive)	> 100 µM (inactive)	> 100 µM (inactive)	> 100 µM (inactive)	> 100 µM (inactive)	–	> 100 µM (inactive)	> 100 µM (inactive)	> 100 µM (inactive)	> 100 µM (inactive)	–
N#CC[C@@H](O)COc1ccccc1	> 100 µM (inactive)	> 100 µM (inactive)	> 100 µM (inactive)	> 100 µM (inactive)	> 100 µM (inactive)	> 100 µM (inactive)	> 100 µM (inactive)	> 100 µM (inactive)	> 100 µM (inactive)	> 100 µM (inactive)	> 100 µM (inactive)	> 100 µM (inactive)	> 100 µM (inactive)	–	> 100 µM (inactive)	> 100 µM (inactive)	> 100 µM (inactive)	> 100 µM (inactive)	> 100 µM (inactive)	–
CC(C)(C)OC(=O)CC(NC(=O)OC(C)(C)C)C(=O)NC(C(=O)O)C(O)c1ccccc1 (centres undefined)	79.1 µM (inactive)	> 100 µM (inactive)	> 100 µM (inactive)	46.9 µM (inactive)	65.2 µM (inactive)	32.4 µM (inactive)	97.7 µM (inactive)	> 100 µM (inactive)	> 100 µM (inactive)	> 100 µM (inactive)	37.6 µM (inactive)	> 100 µM (inactive)	> 100 µM (inactive)	> 100 µM (inactive)	13.9 µM (inactive)	56 µM (inactive)	80.9 µM (inactive)	> 100 µM (inactive)	14.3 µM (inactive)	–
CN(C)c1ccc(/C=C2\Oc3ccccc3C2=O)cc1	> 100 µM (inactive)	> 100 µM (inactive)	52.2 µM (inactive)	21.5 µM (inactive)	> 100 µM (inactive)	> 100 µM (inactive)	> 100 µM (inactive)	> 100 µM (inactive)	34.8 µM (inactive)	> 100 µM (inactive)	54.1 µM (inactive)	> 100 µM (inactive)	> 100 µM (inactive)	68.5 µM (inactive)	> 100 µM (inactive)	> 100 µM (inactive)	> 100 µM (inactive)	> 100 µM (inactive)	> 100 µM (inactive)	–
COc1c(CCl)cc(-c2cc(=O)c3ccccc3s2)cc1CCl	5.58 µM (inactive)	29.3 µM (inactive)	1.95 µM (inactive)	2.68 µM (inactive)	2.76 µM (inactive)	1.91 µM (inactive)	3.33 µM (inactive)	11.5 µM (inactive)	6.08 µM (inactive)	26.9 µM (inactive)	1.91 µM (inactive)	3.33 µM (inactive)	15 µM (inactive)	–	30.1 µM (inactive)	39.4 µM (inactive)	1.66 µM (inactive)	6.78 µM (inactive)	2.29 µM (inactive)	0.0449 µM (active)
c1ccc(SC(Sc2ccccc2)c2ccc3c(c2)OCO3)cc1	> 100 µM (inactive)	> 100 µM (inactive)	> 100 µM (inactive)	> 100 µM (inactive)	> 100 µM (inactive)	38.1 µM (inactive)	> 100 µM (inactive)	60.3 µM (inactive)	88.9 µM (inactive)	> 100 µM (inactive)	–	–	> 100 µM (inactive)	> 100 µM (inactive)	23.6 µM (inactive)	> 100 µM (inactive)	> 100 µM (inactive)	–	–	16.3 µM (inactive)
